Read-outs that look alike come from different tables or passages of the source.
Assays:
[1] = test system: pancreatic cancer PDX tumors; experiment: Static PET imaging in pancreatic cancer PDX-bearing mice; assay type: in vivo; conditions: for tumor area under the curve relative to FAPI-04: ^86Y PET tumor SUVmean curve; for peak tumor SUVmean / time of peak tumor SUVmean after injection: ^86Y PET
Procedure: (§1) All animal care and experimental procedures were performed by following the animal protocols (CCME-LiuZB-2) approved by the ethics committee of Peking University. The mice were from the Beijing Vital River Laboratory Animal Technology Co., Ltd. For cell-line–derived xenograft models, 5 × 10^6 HT-1080-FAP or HT-1080 cells were subcutaneously inoculated into the right shoulder of 6-wk-old female nu/nu-mice. To establish the patient-derived xenograft (PDX) model, tumor specimens were obtained from patients who underwent presurgical ^68Ga-FAPI-04 PET/CT imaging to confirm that the tumor was FAP-positive. After surgical resection, the tumor specimens were immediately placed in ready-to-use fresh tissue preservation solution (TM2701-100) and transported under refrigerated conditions within 2 h. The research protocol was approved by the Institutional Ethics Committee of Peking Union Medical College Hospital (JS-2628). Six-week-old female nonobese diabetic/severe combined immunodeficiency (NOD/SCID) mice were used to establish the PDX models. After being removed from the preservation solution, the tumor specimens were immediately immersed in sterile PBS solution and minced with scissors, and the fragments were then implanted subcutaneously into the left and right shoulders of the mice, which were anesthetized with isoflurane in advance. Engraftment efficiency was determined by ^68Ga-FAPI-04 PET/CT imaging (Supplemental Fig. 21A).
All PET scans were performed on a Mediso nanoScan PET 122S small-animal PET/CT imaging system. For the 60-min dynamic PET scan, 29.6–37.0 MBq of ^68Ga-TEFAPI-06 or ^68Ga-TEFAPI-07 were given to healthy NOD/SCID mice through tail-vein injection. The static PET imaging was performed on mice bearing pancreatic PDX tumors, HT-1080-FAP tumors, and HT-1080 tumors at the indicated time points after intravenous injection of 7.4–11.1 MBq of ^86Y-FAPI-04,^86Y-TEFAPI-06, or ^86Y-TEFAPI-07.

FAP [2] = molecular target: T1, FAP (Homo sapiens, UniProt Q12884); experiment: Competition assay against ^68Ga-FAPI-04 in HT-1080-FAP cells; assay type: binding; design: host or cells: HT-1080 human fibrosarcoma cells (HT-1080-FAP)
T1 sequence (Q12884 1-760): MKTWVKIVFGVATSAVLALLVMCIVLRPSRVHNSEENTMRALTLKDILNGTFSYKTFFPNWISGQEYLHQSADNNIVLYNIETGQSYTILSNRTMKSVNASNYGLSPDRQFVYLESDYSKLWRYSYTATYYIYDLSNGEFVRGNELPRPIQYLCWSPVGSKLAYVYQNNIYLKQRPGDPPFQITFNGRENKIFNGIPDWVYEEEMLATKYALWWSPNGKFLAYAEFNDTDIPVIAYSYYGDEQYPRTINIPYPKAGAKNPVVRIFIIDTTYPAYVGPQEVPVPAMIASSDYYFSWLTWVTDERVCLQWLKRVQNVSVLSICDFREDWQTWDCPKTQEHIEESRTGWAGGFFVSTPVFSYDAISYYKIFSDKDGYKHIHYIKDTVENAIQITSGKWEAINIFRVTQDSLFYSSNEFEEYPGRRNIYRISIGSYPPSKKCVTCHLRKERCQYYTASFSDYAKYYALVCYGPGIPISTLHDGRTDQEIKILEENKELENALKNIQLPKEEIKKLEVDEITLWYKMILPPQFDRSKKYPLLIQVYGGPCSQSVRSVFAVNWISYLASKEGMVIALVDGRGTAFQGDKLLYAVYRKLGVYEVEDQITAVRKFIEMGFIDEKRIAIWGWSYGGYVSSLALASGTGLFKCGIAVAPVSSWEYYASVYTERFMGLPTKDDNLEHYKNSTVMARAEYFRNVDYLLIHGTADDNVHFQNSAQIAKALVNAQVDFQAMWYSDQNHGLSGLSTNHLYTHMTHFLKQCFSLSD
Procedure: (§2) The human fibrosarcoma cell line (HT-1080), and the HT-1080 cell line transfected with human FAP gene (HT-1080-FAP, from WuXi AppTec), were cultivated in Eagle minimum essential medium containing 10% fetal bovine serum, 1% antibiotic–antimycotic, and a 4 μg/mL concentration of blasticidin S at 37°C under conditions of 5% carbon dioxide. For competition assays, HT-1080-FAP cells were seeded in 6-well plates and cultivated until they reached about 1.2 × 10^6 cells per well. The cells were incubated simultaneously with unlabeled FAPI-04, TEFAPI-06, or TEFAPI-07 (10^−5–10^−9 M) with ^68Ga-FAPI-04 in 1 mL of fresh medium without fetal bovine serum for 1 h. The medium was removed, and the cells were washed twice with phosphate-buffered saline (PBS). Subsequently, the cells were lysed with 0.5 mL of 1 M NaOH and washed with 0.5 mL of PBS twice, and the NaOH (0.5 mL) and PBS (0.5 mL × 2) were collected to determine the uptake counts. For saturation binding assays, HT-1080-FAP and HT-1080 cells were seeded in 24-well plates and cultivated until they reached about 2 × 10^5 cells per well. ^68Ga-FAPI-04, ^68Ga-TEFAPI-06, or ^68Ga-TEFAPI-07 was diluted to a concentration 0.01–200 nM in fresh medium without fetal bovine serum. The cells were incubated in the above solution for 1 h and then washed twice with PBS. The lysed cells and the PBS for washing were collected to determine the counts.

FAP [3] = molecular target: T1, FAP; experiment: Blocking study in vivo with cold ligand; design: from tissue; host or cells: tumour in tumour-bearing mice; species or system mice; conditions: 12 h and 24 h after treatment with cold ligand
FAP [4] = molecular target: T1, FAP; experiment: Saturation binding assay of ^68Ga-labeled tracers in HT-1080-FAP and HT-1080 cells; design: host or cells: HT-1080 human fibrosarcoma cells (HT-1080-FAP)
Procedure: as §2

HT-1080 cells = experiment: Cellular uptake assay in HT-1080 cells; assay type: cell-based, human; conditions: HT-1080 cells (FAP-negative)
Procedure: as §2

[5] = Dynamic PET imaging in healthy NOD/SCID mice (heart/blood signal); assay type: in vivo; conditions: for time of peak signal in heart after injection: dynamic PET
HT-1080-FAP cells = experiment: Cellular uptake assay in HT-1080-FAP cells; assay type: cell-based, human
[6] = test system: HT-1080-FAP and HT-1080 tumors; experiment: PET imaging of HT-1080-FAP and HT-1080 tumor-bearing mice; assay type: in vivo; conditions: ^86Y PET, tumor-bearing nu/nu mice
Procedure: as §1, with “After being removed from the preservation solution, the tumor specimens were immediately immersed in sterile PBS solution and minced with scissors, and the fragments were then implanted subcutaneously into the left and right shoulders of the mice, which were anesthetized with isoflurane in advance.” left out, “21A). […]” for “21A).”

[7] = 0.05% human serum albumin, read-out: half-maximal inhibitory concentration in the presence of albumin
[8] = HT-1080-FAP cells, unlabeled ligand vs ^68Ga-FAPI-04, 1 h, medium without FBS, read-out: half-maximal inhibitory concentration (IC50)
[9] = ^68Ga-labeled tracer, 0.01-200 nM, 1 h, medium without FBS, read-out: dissociation constant (Kd)
[10] = binding assays in 0.05% human serum albumin, sentence prints 'in the absence of albumin', read-out: dissociation constant, binding assays in 0.05% human serum albumin

SMILES	tumor area under the curve relative to FAPI-04 [1] [fold]	IC50 (FAP [2]; [7]) [nM]	IC50 (FAP [2]; [8]) [nM]	tumor uptake after treatment with cold ligand (blocking) (FAP [3])	Kd (FAP [4]; [9]) [nM]	Kd (FAP [4]; [10]) [nM]	cellular uptake in HT-1080 cells (HT-1080 cells)	decrease of heart signal from 10 to 60 min after injection [5]	decrease of heart signal from 10 to 240 min after injection [5]	decrease of heart signal from 60 to 240 min after injection [5]	time of peak signal in heart after injection [5]	cellular uptake in HT-1080-FAP cells (HT-1080-FAP cells)	tumor SUVmean at 36 h after injection [1]	peak tumor SUVmean [1]	time of peak tumor SUVmean after injection [1] [h]	uptake in HT-1080-FAP tumors relative to HT-1080 tumors [6]
N#C[C@@H]1CC(F)(F)CN1C(=O)CNC(=O)c1ccnc2ccc(OCCCN3CCN(C(=O)[C@H](CCCCNC(=O)CN4CCN(CC(=O)O)CCN(CC(=O)O)CCN(CC(=O)O)CC4)NC(=O)CCCC(=O)NC(CCCCNC(=O)CCCc4ccc(I)cc4)C(=O)O)CC3)cc12 (stereo partly shown) [TEFAPI-06]	37.9	11.4 ± 1.15	12.2 ± 0.65	tumor uptake decreased	10.2 ± 2.56	4.37 ± 0.81	–	–	–	–	–	–	–	–	–	–
Cc1cc(-c2ccc(NC(=O)CCCC(=O)N[C@@H](CCCCNC(=O)CN3CCN(CC(=O)O)CCN(CC(=O)O)CCN(CC(=O)O)CC3)C(=O)N3CCN(CCCOc4ccc5nccc(C(=O)NCC(=O)N6CC(F)(F)C[C@H]6C#N)c5c4)CC3)c(C)c2)ccc1N=Nc1ccc2c(S(=O)(=O)O)cc(S(=O)(=O)O)c(N)c2c1O [TEFAPI-07]	35.5	27.7 ± 5	17 ± 1.43	tumor uptake decreased	7.81 ± 2.28	19.1 ± 5.54	–	–	–	–	–	–	–	–	–	–
N#C[C@@H]1CC(F)(F)CN1C(=O)CNC(=O)c1ccnc2ccc(OCCCN3CCN(C(=O)[C@H](CCCCNC(=O)CN4CCN(CC(=O)[O-])CCN(CC(=O)[O-])CCN(CC(=O)[O-])CC4)NC(=O)CCCC(=O)NC(CCCCNC(=O)CCCc4ccc(I)cc4)C(=O)O)CC3)cc12.[68Ga+3] (stereo partly shown) [^68Ga-TEFAPI-06]	–	–	–	–	10.2 ± 2.56	–	almost negligible uptake	35.70% ± 4.74%	56.18% ± 2.50%	31.80% ± 1.15%	about 2 min	significant uptake	–	–	–	–
Cc1cc(-c2ccc(NC(=O)CCCC(=O)N[C@@H](CCCCNC(=O)CN3CCN(CC(=O)[O-])CCN(CC(=O)[O-])CCN(CC(=O)[O-])CC3)C(=O)N3CCN(CCCOc4ccc5nccc(C(=O)NCC(=O)N6CC(F)(F)C[C@H]6C#N)c5c4)CC3)c(C)c2)ccc1N=Nc1ccc2c(S(=O)(=O)O)cc(S(=O)(=O)O)c(N)c2c1O.[68Ga+3] [^68Ga-TEFAPI-07]	–	–	–	–	7.81 ± 2.28	–	almost negligible uptake	23.15% ± 2.16%	54.28% ± 4.98%	40.56% ± 5.25%	about 2 min	significant uptake	–	–	–	–
N#C[C@@H]1CC(F)(F)CN1C(=O)CNC(=O)c1ccnc2ccc(OCCCN3CCN(C(=O)[C@H](CCCCNC(=O)CN4CCN(CC(=O)[O-])CCN(CC(=O)[O-])CCN(CC(=O)[O-])CC4)NC(=O)CCCC(=O)NC(CCCCNC(=O)CCCc4ccc(I)cc4)C(=O)O)CC3)cc12.[86Y+3] (stereo partly shown) [^86Y-TEFAPI-06]	–	–	–	–	–	–	–	–	–	–	–	–	0.602	0.73	18	2- to 6 fold
Cc1cc(-c2ccc(NC(=O)CCCC(=O)N[C@@H](CCCCNC(=O)CN3CCN(CC(=O)[O-])CCN(CC(=O)[O-])CCN(CC(=O)[O-])CC3)C(=O)N3CCN(CCCOc4ccc5nccc(C(=O)NCC(=O)N6CC(F)(F)C[C@H]6C#N)c5c4)CC3)c(C)c2)ccc1N=Nc1ccc2c(S(=O)(=O)O)cc(S(=O)(=O)O)c(N)c2c1O.[86Y+3] [^86Y-TEFAPI-07]	–	–	–	–	–	–	–	–	–	–	–	–	0.606	0.81	8	2- to 6 fold

From article PMC9157728, “Albumin Binder–Conjugated Fibroblast Activation Protein Inhibitor Radiopharmaceuticals for Cancer Therapy” (Journal of Nuclear Medicine, 2022)
